Laboratory results: patent US12257237B2 (priority 2017, dated 2025)
Values joined by “and” are separate entries in the source; they are usually repeats but may differ in a detail not shown here. Equal entries are not always repeated.

Legend:
Type in all cases: in vivo, Athymic nude mice
[1] = system: DD013 dedifferentiated liposarcoma; assay: Antitumour activity in DD013 dedifferentiated liposarcoma xenograft model; settings: for DD0113 tumour weight, Mean / DD0113 tumour weight, individual mouse: Doxorubicin 8 mg/kg q7dx2
Description: (§1) Experiments were performed with female Athymic nude mice, 9-10 weeks old obtained from Harlan Laboratories (Udine, Italy). They were maintained under Specific Pathogen Free conditions with constant temperature and humidity, according to the institutional guidelines.
(§2) Tumour growth mice was monitored two/three times a week (depending on tumour growth rate, to avoid unnecessary stress to the animals) by Vernier caliper. Mice were sacrificed when tumour reached a mean weight of 2±0.5 gr. The antitumour activity will be expressed as T/C %, where T and C were the mean tumour weight of treated and control groups, respectively. Mice were monitored daily and weighted at least two times a week. Tolerability was evaluated on the basis of body weight loss (BWL) and clinical observation.
(§3) Statistical analysis was performed with GraphPad Prism version 6.01 software (GraphPad software, Inc., La Jolla, CA, USA). ANOVA test was performed to evaluate if there were statistically significant differences between treated and control groups.
Briefly, xenografts were obtained by transplanting 3-4 mm tumour fragments s.c. in the flanks of mice. The growing tumour masses were measured with the aid of a Vernier caliper, and the tumour weights (TW, 1 mm^3=1 mg) were calculated by the formula: length×(width) 2/2. When tumour load achieved about 200-400 mg, mice were randomized into the experimental groups.

[2] = Drug tolerability (body weight) in DD013 dedifferentiated liposarcoma xenograft model; settings: 8 mg/kg; day 33
Description: as §1, §2

[3] = system: TC-71 Ewing sarcoma; assay: Antitumour activity in TC-71 Ewing sarcoma xenograft model
Description: as §1, §2, §3
5×10^6 TC-71 cells were inoculated subcutaneously in the right flank of mice. The growing tumour masses were measured with the aid of a Vernier caliper, and the tumour weights (1 mm^3=1 mg) were calculated by the formula: length×(width) 2/2. When tumour load achieved about 100 mg, mice were randomized into the experimental groups and treatment started.

[4] = Drug tolerability (body weight) in TC-71 Ewing sarcoma xenograft model; settings: Irinotecan 50 mg/kg; for BWL %: negative = loss vs day 9
Description: as §1, §2

[5] = 50 mg/kg i.v. q7dx3, day 9 from inoculum
[6] = 50 mg/kg i.v. q7dx3, day 11 from inoculum
[7] = 50 mg/kg i.v. q7dx3, day 14 from inoculum
[8] = 50 mg/kg i.v. q7dx3, day 16 from inoculum
[9] = 50 mg/kg i.v. q7dx3, day 18 from inoculum
[10] = 50 mg/kg i.v. q7dx3, day 21 from inoculum
[11] = 50 mg/kg i.v. q7dx3, day 23 from inoculum
[12] = 50 mg/kg i.v. q7dx3, day 25 from inoculum
[13] = 50 mg/kg i.v. q7dx3, day 28 from inoculum
[14] = 50 mg/kg i.v. q7dx3, day 30 from inoculum
[15] = 50 mg/kg i.v. q7dx3, day 32 from inoculum
[16] = 50 mg/kg i.v. q7dx3, day 35 from inoculum
[17] = 50 mg/kg i.v. q7dx3, day 38 from inoculum
[18] = 50 mg/kg i.v. q7dx3, day 42 from inoculum
[19] = 50 mg/kg i.v. q7dx3, day 45 from inoculum
[20] = 50 mg/kg i.v. q7dx3, day 49 from inoculum
[21] = 50 mg/kg i.v. q7dx3, day 53 from inoculum
[22] = day 9 from tumour inoculum (treatment start)

COc1cccc2c1C(=O)c1c(O)c3c(c(O)c1C2=O)C[C@@](O)(C(=O)CO)C[C@@H]3O[C@H]1C[C@H](N)[C@H](O)[C@H](C)O1 [Doxorubicin, reference compound]
optimal T/C ([1]; 8 mg/kg i.v. q7dx2): 34.1% | effect on tumour growth ([1]; 8 mg/kg q7dx2): No arrest of tumour growth was observed | DD0113 tumour weight, Mean ([1]; day 23 from inoculum): 199.3 mg | DD0113 tumour weight, individual mouse ([1]; day 23 from inoculum): 302.2 mg and 277.0 mg and 253.6 mg and 228.6 mg and 196.0 mg and 178.0 mg and 147.0 mg and 114.2 mg and 97.6 mg | DD0113 tumour weight, Mean ([1]; day 26 from inoculum): 295.8 mg | DD0113 tumour weight, individual mouse ([1]; day 26 from inoculum): 464.9 mg and 410.3 mg and 365.9 mg and 384.0 mg and 308.8 mg and 283.4 mg and 232.9 mg and 87.4 mg | DD0113 tumour weight, Mean ([1]; day 29 from inoculum): 336.6 mg | DD0113 tumour weight, individual mouse ([1]; day 29 from inoculum): 492.1 mg and 380.4 mg and 478.9 mg and 477.1 mg and 398.0 mg and 313.2 mg and 252.9 mg and 147.9 mg and 89.3 mg | DD0113 tumour weight, Mean ([1]; day 33 from inoculum): 409.1 mg | DD0113 tumour weight, individual mouse ([1]; day 33 from inoculum): 566.5 mg and 526.0 mg and 691.7 mg and 549.0 mg and 444.0 mg and 344.6 mg and 295.0 mg and 150.3 mg | DD0113 tumour weight, Mean ([1]; day 36 from inoculum): 425.8 mg | DD0113 tumour weight, individual mouse ([1]; day 36 from inoculum): 549.6 mg and 572.5 mg and 610.4 mg and 519.4 mg and 503.4 mg and 361.9 mg and 345.6 mg and 240.6 mg | DD0113 tumour weight, Mean ([1]; day 40 from inoculum): 499.7 mg | DD0113 tumour weight, individual mouse ([1]; day 40 from inoculum): 578.4 mg and 652.6 mg and 762.1 mg and 750.9 mg and 531.1 mg and 424.1 mg and 401.6 mg and 244.9 mg and 151.8 mg | DD0113 tumour weight, Mean ([1]; day 43 from inoculum): 543.1 mg | DD0113 tumour weight, individual mouse ([1]; day 43 from inoculum): 529.7 mg and 810.5 mg and 868.0 mg and 780.2 mg and 575.9 mg and 420.0 mg and 428.4 mg and 263.0 mg and 212.3 mg | DD0113 tumour weight, Mean ([1]; day 47 from inoculum): 666.3 mg | DD0113 tumour weight, individual mouse ([1]; day 47 from inoculum): 623.2 mg and 800.6 mg and 669.1 mg and 636.6 mg and 529.5 mg and 430.2 mg and 224.5 mg | DD0113 tumour weight, Mean ([1]; day 50 from inoculum): 716.0 mg | DD0113 tumour weight, individual mouse ([1]; day 50 from inoculum): 561.6 mg and 1194.0 mg and 680.6 mg | DD0113 tumour weight, Mean ([1]; day 54 from inoculum): 810.3 mg | DD0113 tumour weight, individual mouse ([1]; day 54 from inoculum): 776.7 mg and 1306.3 mg and 1175.7 mg and 807.3 mg | DD0113 tumour weight, Mean ([1]; day 58 from inoculum): 958.1 mg | DD0113 tumour weight, individual mouse ([1]; day 58 from inoculum): 819.5 mg and 1324.9 mg and 1508.4 mg and 1392.3 mg | DD0113 tumour weight, Mean ([1]; day 62 from inoculum): 1128.5 mg | DD0113 tumour weight, individual mouse ([1]; day 62 from inoculum): 955.7 mg and 1686.9 mg and 1777.9 mg and 1604.2 mg | DD0113 tumour weight, Mean ([1]; day 65 from inoculum): 1312.4 mg | DD0113 tumour weight, individual mouse ([1]; day 65 from inoculum): 960.1 mg and 1836.1 mg and 2144.7 mg and 1949.8 mg and 1415.2 mg | DD0113 tumour weight, Mean ([1]; day 69 from inoculum): 1491.3 mg | DD0113 tumour weight, individual mouse ([1]; day 69 from inoculum): 1238.0 mg and 2045.0 mg and 2383.0 mg and 2019.6 mg and 1526.2 mg | DD0113 tumour weight, Mean ([1]; day 72 from inoculum): 1712.4 mg | DD0113 tumour weight, individual mouse ([1]; day 72 from inoculum): 1440.5 mg and 2810.6 mg and 2245.9 mg and 1770.1 mg | DD0113 tumour weight, Mean ([1]; day 75 from inoculum): 1970.8 mg | DD0113 tumour weight, individual mouse ([1]; day 75 from inoculum): 1747.2 mg and 3155.1 mg and 2700.8 mg and 2034.9 mg | maximum BWL [2]: 5.2%

CCc1c2c(nc3ccc(OC(=O)N4CCC(N5CCCCC5)CC4)cc13)-c1cc3c(c(=O)n1C2)COC(=O)[C@]3(O)CC [Irinotecan, reference compound]
TC-71 tumour weight, individual mice [3, 5]: 316.8 mg and 124.6 mg and 103.5 mg and 88.1 mg | TC-71 tumour weight, mean [3, 5]: 106.4 mg | TC-71 tumour weight, individual mice [3, 6]: 90.6 mg and 45.7 mg and 63.3 mg | TC-71 tumour weight, mean [3, 6]: 76.4 mg | TC-71 tumour weight, individual mice [3, 7]: 87.8 mg and 16.6 mg and 9.9 mg and 17.1 mg | TC-71 tumour weight, mean [3, 7]: 22.6 mg | TC-71 tumour weight, individual mice [3, 8]: 99.6 mg and 41.5 mg and 23.8 mg and 72.8 mg | TC-71 tumour weight, mean [3, 8]: 35.0 mg | TC-71 tumour weight, individual mice [3, 9]: 44.2 mg and 11.3 mg and 8.8 mg and 28.1 mg | TC-71 tumour weight, mean [3, 9]: 14.8 mg | optimal T/C ([3]; 50 mg/kg i.v. q7dx3, day 21): 0.4% | TC-71 tumour weight, individual mice [3, 10]: 9.6 mg and 2.4 mg and 6.1 mg and 7.5 mg | TC-71 tumour weight, mean [3, 10]: 6.1 mg | TC-71 tumour weight, individual mice [3, 11]: 1.7 mg and 5.4 mg | TC-71 tumour weight, mean [3, 11]: 7.0 mg | TC-71 tumour weight, individual mice [3, 12]: 9.9 mg and 3.3 mg | TC-71 tumour weight, mean [3, 12]: 5.9 mg | TC-71 tumour weight, individual mice [3, 13]: 6.8 mg and 1.5 mg and 3.3 mg and 2.5 mg | TC-71 tumour weight, mean [3, 13]: 3.5 mg | TC-71 tumour weight, individual mice [3, 14]: 15.4 mg and 2.7 mg and 3.8 mg and 2.6 mg | TC-71 tumour weight, mean [3, 14]: 6.1 mg | TC-71 tumour weight, individual mice [3, 15]: 83.7 mg and 8.2 mg and 12.1 mg and 9.2 mg | TC-71 tumour weight, mean [3, 15]: 28.3 mg | TC-71 tumour weight, individual mice [3, 16]: 223.4 mg and 42.7 mg and 36.0 mg and 53.8 mg | TC-71 tumour weight, mean [3, 16]: 88.9 mg | TC-71 tumour weight, individual mice [3, 17]: 713.8 mg and 105.6 mg and 74.5 mg and 145.5 mg | TC-71 tumour weight, mean [3, 17]: 259.8 mg | TC-71 tumour weight, individual mice [3, 18]: 2687.8 mg and 327.2 mg and 346.6 mg and 199.0 mg | TC-71 tumour weight, mean [3, 18]: 890.2 mg | TC-71 tumour weight, individual mice [3, 19]: 2443.2 mg and 627.6 mg and 589.7 mg and 305.0 mg | TC-71 tumour weight, mean [3, 19]: 991.4 mg | TC-71 tumour weight, individual mice [3, 20]: 2887.4 mg and 1184.6 mg and 1244.3 mg and 316.1 mg | TC-71 tumour weight, mean [3, 20]: 1408.1 mg | TC-71 tumour weight, individual mice [3, 21]: 3331.8 mg and 1062.6 mg and 2135.1 mg and 308.0 mg | TC-71 tumour weight, mean [3, 21]: 1709.4 mg | mice exhibiting sustained CR up to the conclusion of the experiment ([3]; 50 mg/kg q7dx3): 4 mice | tumour regression ([3]; 50 mg/kg q7dx3): tumour regression in all mice | Mouse body weight, group Mean [4, 22]: 27.4 g | BWL % [4, 22]: 0.0% | Mouse body weight, group Mean ([4]; day 10 from tumour inoculum): 25.8 g | BWL % ([4]; day 10 from tumour inoculum): −6.1% | Mouse body weight, group Mean ([4]; day 11 from tumour inoculum): 25.6 g | BWL % ([4]; day 11 from tumour inoculum): −6.6% | Mouse body weight, group Mean ([4]; day 14 from tumour inoculum): 26.9 g | BWL % ([4]; day 14 from tumour inoculum): −1.9% | Mouse body weight, group Mean ([4]; day 16 from tumour inoculum): 27.0 g | BWL % ([4]; day 16 from tumour inoculum): −1.7% | Mouse body weight, group Mean ([4]; day 18 from tumour inoculum): 26.0 g | BWL % ([4]; day 18 from tumour inoculum): −5.3% | Mouse body weight, group Mean ([4]; day 21 from tumour inoculum): 26.2 g | BWL % ([4]; day 21 from tumour inoculum): −4.3% | Mouse body weight, group Mean ([4]; day 23 from tumour inoculum): 26.5 g | BWL % ([4]; day 23 from tumour inoculum): −3.5% | Mouse body weight, group Mean ([4]; day 25 from tumour inoculum): 25.4 g | BWL % ([4]; day 25 from tumour inoculum): −7.5% | Mouse body weight, group Mean ([4]; day 28 from tumour inoculum): 26.4 g | BWL % ([4]; day 28 from tumour inoculum): −3.9% | Mouse body weight, group Mean ([4]; day 30 from tumour inoculum): 27.1 g | BWL % ([4]; day 30 from tumour inoculum): −1.1% | Mouse body weight, group Mean ([4]; day 32 from tumour inoculum): 27.0 g | BWL % ([4]; day 32 from tumour inoculum): −1.6% | Mouse body weight, group Mean ([4]; day 35 from tumour inoculum): 27.9 g | BWL % ([4]; day 35 from tumour inoculum): 1.7% | Mouse body weight, group Mean ([4]; day 38 from tumour inoculum): 27.2 g | BWL % ([4]; day 38 from tumour inoculum): −0.7% | Mouse body weight, group Mean ([4]; day 42 from tumour inoculum): 28.4 g | BWL % ([4]; day 42 from tumour inoculum): 3.5% | Mouse body weight, group Mean ([4]; day 46 from tumour inoculum): 27.8 g | BWL % ([4]; day 46 from tumour inoculum): 1.5% | Mouse body weight, group Mean ([4]; day 49 from tumour inoculum): 28.4 g | BWL % ([4]; day 49 from tumour inoculum): 3.6% | Mouse body weight, group Mean ([4]; day 53 from tumour inoculum): 28.1 g | BWL % ([4]; day 53 from tumour inoculum): 2.3%
